For data set [1], the system named is proneural subtype glioblastoma multiform (559T). The experiment in a line: cells. The following applies: Homo sapiens, 72 h. How it is done: (§1) Particularly, the cell growth inhibition effect was measured by WST-1 cell proliferation assay [http://www.roche-applied-science.com/PROD_INF/MANUALS/CELL_MAN/apoptosis—087—088.pdf]. The compound of formula 1 was loaded in a 384-well cell culture plate. Three types of glioblastoma multiform cell lines [proneural subtype (559T), mesenchymal subtype (592T), and classical subtype (626T)], normal human astrocytes (NHA), a lung cancer cell line (A549), and a glioblastoma multiform cell line (U87MG) were distributed in the plate at the density of 4.5×10^3 cells/well, and the medium was filled up to make 50 μl per well. At this time, the concentration of the solvent DMSO for the compound of formula 1 was no more than 0.2%. After culturing the cells for 72 hours, 5 mg/ml of WST-1 reagent was added by 5 μl per well, followed by reaction for 3˜4 hours. Then OD450 was measured to investigate the effect of the compound of formula 1 on cell proliferation.

In data set [2] the test system is GBM #1 glioblastoma multiform patient originated cells. The data set can be described thus: Neurosphere formation inhibition, GBM #1. The data set is classed as cell-based, human. Further details: key to inhibition of neurosphere formation: S: strong effect; I: intermediate effect; R: rare effect. Here is the method:
(§2) Particularly, to investigate neurosphere formation, glioblastoma multiform cells were cultured for a certain time and the cells were distributed again in culture vessels, followed by additional culture. Then, the number of newly generated neurospheres was measured. First, the glioblastoma multiform patient originated cells were sub-cultured, which were distributed in a 96-well plate (20, 50, and 200 cells in 50 μl of culture medium/well). 2, 6, and 20 μM of the compound of formula 1 (azathioprine) and the compound of Comparative Example 1 (Temodal) were treated thereto by 50 μl per well to make the final concentrations of 1, 3, and 10 μM. Then, the compound of formula 1 (azathioprine) and the compound of Comparative Example 1 (Temodal) were added to 50 μl of cell culture medium with the same concentrations as the above once a week, which were then cultured for 7˜23 days. When neurosphere was formed at least 50 μm in the control group not treated with the compound, the number of neurospheres in each well was counted to compare the neurosphere formation before and after the treatment of the compound of formula 1 (azathioprine) and the compound of Comparative Example 1 (Temodal).
The glioblastoma multiform cells used in this experiment were classified into 4 types, which are type A, type B, type C, and type D, according to the gene expression pattern. Methylation of MGMT (O6-me-G methyltransferase), the DNA repair protein, was confirmed in each cell line. At that time, type A [GBM #1, #2, #3] was proneural subtype, type B [GBM #4, #5, #6, #7] was classical subtype, type C [GBM #8] was mesenchymal subtype, and type D [GBM #9, #10] was non-classified glioblastoma multiform.

The subject of data set [3] is GBM #3 glioblastoma multiform patient originated cells. The data set can be described thus: Neurosphere formation inhibition, GBM #3. The data set is classed as cell-based, human. Further details: key: S: strong effect; I: intermediate effect; R: rare effect. The following applies: GBM #3, type A (proneural), Azathioprine 1 μM, duration 21 day. How it is done: as §2, with “2, 6, and 20 μM of the compound of formula 1 (azathioprine) and the compound of Comparative Example 1 (Temodal) were treated thereto by 50 μl per well to make the final concentrations of 1, 3, and 10 μM.” left out
(§3) The glioblastoma multiform cells used in this experiment were classified into 4 types, which are type A, type B, type C, and type D, according to the gene expression pattern. Methylation of MGMT (O6-me-G methyltransferase), the DNA repair protein, was confirmed in each cell line. […]

In data set [4] the test system is GBM #6 glioblastoma multiform patient originated cells. The experiment in a line: Neurosphere formation inhibition, GBM #6. The following applies: GBM #6, type B (classical), Azathioprine 1 μM, duration 23 day. Further details: key: S: strong effect; I: intermediate effect; R: rare effect. Format: cell-based, human. Here is the method:
as §2
The glioblastoma multiform cells used in this experiment were classified into 4 types, which are type A, type B, type C, and type D, according to the gene expression pattern. […]

The subject of data set [5] is GBM #9 glioblastoma multiform patient originated cells. The data set can be described thus: Neurosphere formation inhibition, GBM #9. The data set is classed as cell-based, human. Further details: key: S: strong effect; I: intermediate effect; R: rare effect. The following applies: GBM #9, type D (non-classified), Azathioprine 1 μM, duration 21 day. Here is the method:
as §2, with “2, 6, and 20 μM of the compound of formula 1 (azathioprine) and the compound of Comparative Example 1 (Temodal) were treated thereto by 50 μl per well to make the final concentrations of 1, 3, and 10 μM.” left out
as §3

In data set [6] the test system is CCD986SK Human fibroblast. The data set can be described thus: Secondary cytotoxicity test, CCD986SK. Format: cell-based. The following applies: CCD-986Sk. How it is done:
as §1
To investigate the cell growth inhibition effect of the compound of formula 1 of the present invention (azathioprine) in many different cell lines, secondary cytotoxicity test was performed with the cell lines listed in Table 5 by the same manner as described in Example 1.

The test system of data set [7] is classical subtype (626T) glioblastoma multiform cells. The following applies: concentrations starting from 100 μM, culture for 7 days. Here is the method: (§4) Thymidine incorporation assay was performed to investigate the cell growth inhibition effect of the compound of the present invention. Three subtypes of glioblastoma multiform cells [proneural subtype (559T), mesenchymal subtype (592T), classical subtype (626T)] and normal human astrocytes (NHA) were N cultured in a 96-well plate at the density of 1×10^4 cells/well, to which 2 μCi/well of 3H-thymidine was added. Azathioprine was added thereto at different concentrations starting from 100 μM, followed by culture for 7 days. 200 μl/well of scintillation fluid (biofluor) was added thereto and count per minute (cpm) was calculated.

The test system of data set [8] is mesenchymal subtype (592T) glioblastoma multiform cells. The following applies: concentrations starting from 100 μM, culture for 7 days. How it is done: as §4
The test system of data set [9] is proneural subtype (559T) glioblastoma multiform cells. The following applies: concentrations starting from 100 μM, culture for 7 days. Here is the method:
as §4

In data set [10] the test system is cells of lung cancer with brain metastasis transplanted in the mouse brain. The experiment in a line: Animal test with cells of lung cancer with brain metastasis, survival. The following applies: azathioprine 2 mg/kg oral every day after day 11, Temodal (TMZ) 65 mg/kg oral 5 days from day 17. Format: in vivo. Here is the method:
The cells of lung cancer with brain metastasis were obtained from Samsung Hospital (Seoul) and cultured. The cultured cells (2×10^5/5 μl) were transplanted in the mouse brain. 17 days later, Temodal administration (65 mg/kg, oral administration) began, which continued for 5 days. The compound of formula 1 of the present invention (azathioprine) was co-treated to the mouse by oral-administration at the dose of 2 mg/kg every day after 11 days from the transplantation of the cells of lung cancer with brain metastasis in the mouse brain. Then, the average survival period was investigated.

For data set [11], the system named is normal human astrocytes (NHA). The following applies: azathioprine 10 μM, 24 hours later, before and after the treatment.
[12] abbreviates: read-out: Cell Growth Inhibition (% Inhibition).

With `Cn1cnc([N+](=O)[O-])c1Sc1ncnc2nc[nH]c12` [Azathioprine, 6-(1-methyl-4-nitro-1H-imidazol-5-ylthio)-7H-purine], in data set [1], the GI50 (usually the concentration giving 50% growth inhibition) was found to be 1.3 µM. Moreover, in data set [1] (setting [12]), the inhibition (usually the drop in the measured response relative to a control, in per cent) at 0.032 µM was -4.2%; the inhibition at 0.1 µM is 2.6%; the inhibition at 0.32 µM was 9.7%; the inhibition at 1 µM turned out to be 35.9%. In data set [1] (setting [12]), the inhibition at 3.2 µM stood at 65.8% and the inhibition at 10 µM turned out to be 78.6%. Besides, the “inhibition of neurosphere formation” value in [2] (GBM #1, type A (proneural), Azathioprine 1 μM, duration 7 day) is recorded as “R”. Moreover, in data set [2] (GBM#1, azathioprine raised to 10 μM), the neurosphere formation result is given as “significantly inhibited”. Further, the “inhibition of neurosphere formation” value in data set [3] is on record as “S”. In addition, the “inhibition of neurosphere formation” value in [4] is on record as “S”. Besides, the “inhibition of neurosphere formation” value in data set [5] is “S”. For the same compound, the IC50 (commonly the concentration that gives 50% inhibition) in data set [6] was over 10 µM. Besides, the “cell growth inhibition effect (3H-thymidine incorporation)” value (“cell growth inhibition effect” below) in data set [7] is recorded as “significant cell growth inhibition effect”. In [8], the “cell growth inhibition effect” value was “significant cell growth inhibition effect”. The “cell growth inhibition effect” value in data set [9] is “significant cell growth inhibition effect”. For the same compound, in [10], the “Average Survival Period” value came to 63 days and the “Survival Period Extension Rate (%)” value is on record as 59-70%. Also, in data set [11], the “concentrations of azathioprine metabolites (TGMP, MeTIMP, MeTGMP, TIMP) in cell lysate” value is reported as “not much changed”.
